Test results: patent publication US20250313535A1, “ALPHA 4 BETA 7 INTEGRIN MODULATORS AND USES THEREOF” (DICE MOLECULES SV, INC., priority 2022, published 2025)

What was measured:
α4β7 integrin = α4β7 integrin (Homo sapiens (Human), UniProt P13612+P26010); test: Integrin Adhesion Assay: Protocol 4 (MAdCAM-coated plate, RPMI-8866 cells with stable LOF mutation of the ITGB1 gene); format: cell-based; conditions: Protocol 4; RPMI-8866 cells with LOF mutation of ITGB1, MAdCAM; read-out: Mean IC50 α4β7 KO
How it was run: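 RPMI-8866 cells with CRISPR/Cas9 knockout of ITGB1 (2×10^6/mL) were added to MAdCAM-coated wells with compound (1% DMSO) in HEPES/NaCl buffer with 1 mM MnCl2, 0.1 mM CaCl2 and 1% BSA, then incubated 1 h at 37 °C. After four washes, adherent cells were quantified by CellTiter-Glo luminescence. Percent inhibition versus DMSO and control compound was fitted to 4-parameter curves.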

α4β1 integrin = α4β1 integrin (Homo sapiens (Human), UniProt P05556+P13612); test: Integrin Adhesion Assay: Protocol 5 (VCAM-coated plate, RPMI-8866 cells with stable LOF mutation of the ITGB7 gene); format: cell-based; conditions: Protocol 5; RPMI-8866 cells with LOF mutation of ITGB7, VCAM; read-out: Mean IC50 α4β1 KO
How it was run: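 RPMI-8866 B cells with CRISPR/Cas9 ITGB7 knockout (clonal, verified by flow cytometry) adhered to VCAM-coated wells for 1 h at 37° C in HEPES/NaCl buffer with 1 mM MnCl2, 0.1 mM CaCl2, 1% BSA, 1% DMSO. Bound cells quantified by CellTiter-Glo luminescence after washing; % inhibition versus DMSO and control, 4-parameter fit.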

Sequence of α4β7 integrin (P13612 34-1032): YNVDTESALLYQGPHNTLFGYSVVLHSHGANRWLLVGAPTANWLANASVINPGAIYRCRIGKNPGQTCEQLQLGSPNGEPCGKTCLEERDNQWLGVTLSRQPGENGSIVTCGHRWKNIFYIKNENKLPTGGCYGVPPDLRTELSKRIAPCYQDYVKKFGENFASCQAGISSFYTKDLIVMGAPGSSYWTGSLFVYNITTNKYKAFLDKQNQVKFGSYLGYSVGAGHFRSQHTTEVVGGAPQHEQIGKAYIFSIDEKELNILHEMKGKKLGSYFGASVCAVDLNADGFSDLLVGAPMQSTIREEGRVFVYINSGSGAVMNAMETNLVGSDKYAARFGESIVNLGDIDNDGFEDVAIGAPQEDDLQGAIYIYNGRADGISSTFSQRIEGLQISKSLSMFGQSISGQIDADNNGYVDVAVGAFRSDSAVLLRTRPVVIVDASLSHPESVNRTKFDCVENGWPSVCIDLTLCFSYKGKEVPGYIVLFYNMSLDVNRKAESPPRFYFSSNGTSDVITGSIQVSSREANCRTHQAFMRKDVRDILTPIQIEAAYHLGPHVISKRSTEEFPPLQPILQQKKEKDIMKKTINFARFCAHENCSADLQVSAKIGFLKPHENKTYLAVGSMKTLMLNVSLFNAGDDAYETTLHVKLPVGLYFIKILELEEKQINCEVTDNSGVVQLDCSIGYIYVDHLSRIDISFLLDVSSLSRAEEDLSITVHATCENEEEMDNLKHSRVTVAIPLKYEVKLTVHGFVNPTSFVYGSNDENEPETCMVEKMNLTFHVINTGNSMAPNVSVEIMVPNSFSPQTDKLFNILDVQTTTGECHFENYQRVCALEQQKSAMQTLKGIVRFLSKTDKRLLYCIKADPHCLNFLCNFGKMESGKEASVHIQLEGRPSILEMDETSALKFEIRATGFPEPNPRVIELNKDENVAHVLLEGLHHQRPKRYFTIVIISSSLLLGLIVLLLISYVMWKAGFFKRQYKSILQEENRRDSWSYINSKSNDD
Sequence of α4β7 integrin (P26010 20-798): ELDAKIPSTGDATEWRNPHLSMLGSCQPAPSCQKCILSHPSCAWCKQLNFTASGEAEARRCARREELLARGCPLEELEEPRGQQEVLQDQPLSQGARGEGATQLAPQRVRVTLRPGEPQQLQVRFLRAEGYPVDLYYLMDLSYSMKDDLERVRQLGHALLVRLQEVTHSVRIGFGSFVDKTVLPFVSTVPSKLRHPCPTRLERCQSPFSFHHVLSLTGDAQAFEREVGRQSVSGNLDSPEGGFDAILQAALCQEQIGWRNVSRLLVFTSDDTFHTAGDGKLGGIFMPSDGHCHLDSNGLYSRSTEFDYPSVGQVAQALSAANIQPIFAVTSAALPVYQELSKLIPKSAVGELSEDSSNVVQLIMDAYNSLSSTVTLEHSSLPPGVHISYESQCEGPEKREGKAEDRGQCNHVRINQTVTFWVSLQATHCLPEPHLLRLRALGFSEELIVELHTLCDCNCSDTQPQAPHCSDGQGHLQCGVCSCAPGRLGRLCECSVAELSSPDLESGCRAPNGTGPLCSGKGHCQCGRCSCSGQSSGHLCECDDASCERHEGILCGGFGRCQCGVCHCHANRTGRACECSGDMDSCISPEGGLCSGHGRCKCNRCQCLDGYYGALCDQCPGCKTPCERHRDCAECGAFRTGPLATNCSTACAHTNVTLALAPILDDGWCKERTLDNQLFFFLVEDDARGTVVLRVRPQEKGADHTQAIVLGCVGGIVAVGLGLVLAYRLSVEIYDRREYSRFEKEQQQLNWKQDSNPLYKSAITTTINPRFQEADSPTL
Sequence of α4β1 integrin (P13612 34-1032): as the sequence (P13612 34-1032) above
Sequence of α4β1 integrin (P05556 21-798): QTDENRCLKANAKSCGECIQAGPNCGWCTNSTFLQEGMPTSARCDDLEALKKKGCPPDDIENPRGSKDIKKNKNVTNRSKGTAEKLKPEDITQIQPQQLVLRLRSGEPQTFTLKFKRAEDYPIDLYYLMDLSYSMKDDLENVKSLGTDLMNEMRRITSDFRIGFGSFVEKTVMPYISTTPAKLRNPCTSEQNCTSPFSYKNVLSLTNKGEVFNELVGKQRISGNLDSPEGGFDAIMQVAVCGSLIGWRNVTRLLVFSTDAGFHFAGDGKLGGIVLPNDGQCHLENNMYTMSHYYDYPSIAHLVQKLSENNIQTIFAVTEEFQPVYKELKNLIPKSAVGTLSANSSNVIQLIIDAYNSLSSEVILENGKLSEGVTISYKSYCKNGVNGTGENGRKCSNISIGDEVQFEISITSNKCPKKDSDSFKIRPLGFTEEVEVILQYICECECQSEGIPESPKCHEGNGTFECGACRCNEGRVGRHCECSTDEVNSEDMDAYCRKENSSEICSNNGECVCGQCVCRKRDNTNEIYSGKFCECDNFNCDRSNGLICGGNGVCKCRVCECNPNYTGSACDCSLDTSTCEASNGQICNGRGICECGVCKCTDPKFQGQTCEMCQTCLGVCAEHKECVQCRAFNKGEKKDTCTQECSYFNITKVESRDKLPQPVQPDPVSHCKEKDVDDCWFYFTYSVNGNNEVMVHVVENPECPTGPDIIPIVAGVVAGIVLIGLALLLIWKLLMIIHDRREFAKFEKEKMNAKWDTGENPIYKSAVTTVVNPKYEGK

SMILES	IC50 (α4β7 integrin)	IC50 (α4β1 integrin)
Cc1cc(C(F)(F)F)cc(F)c1C(=O)N[C@@H](Cc1cccc2c(-c3c(C(F)(F)F)c4cc(CN(C)C)ccc4n(C)c3=O)cccc12)C(=O)O [Compound 700]	10 to 100 nM	> 1000 nM
CN(C)Cc1ccc2c(c1)c(C(F)(F)F)c(-c1cccc3c(C[C@H](NC(=O)c4c(F)cccc4CN4CCC(F)(F)CC4)C(=O)O)cccc13)c(=O)n2C [Compound 701]	10 to 100 nM	> 1000 nM
COc1c(CN2CCCCC2)ccc(OC(F)(F)F)c1-c1cccc2c(C[C@H](NC(=O)c3c(C)cccc3F)C(=O)O)cccc12 [Compound 704]	10 to 100 nM	> 1000 nM
Cc1cccc(F)c1C(=O)N[C@@H](Cc1cccc2c(-c3c(C(F)(F)F)c4cc(CCN5CCC(F)(F)C5)ccc4n(C)c3=O)cccc12)C(=O)O [Compound 712]	10 to 100 nM	> 1000 nM
Cc1cccc(F)c1C(=O)N[C@@H](Cc1cccc2c(-c3c(C(F)(F)F)c4cc(CCN5CCC(F)(F)CC5)ccc4n(C)c3=O)cccc12)C(=O)O [Compound 714]	10 to 100 nM	> 1000 nM
Cc1cc(CN2CCCCC2)cnc1-c1cccc2c(C[C@H](NC(=O)C3(C(F)(F)F)CCN(CC(F)F)CC3)C(=O)O)cccc12 [Compound 721]	10 to 100 nM	> 1000 nM
O=C(O)[C@H](Cc1cccc2c(-c3nccc4ccccc34)cccc12)NC(=O)C1(C(F)(F)F)CCN(CC(F)(F)F)CC1 [Compound 723]	10 to 100 nM	> 1000 nM
COc1cc2c(c(C)c1-c1cccc3c(C[C@H](NC(=O)C4(C(F)(F)F)CCN(CC(F)(F)F)CC4)C(=O)O)cccc13)CN(C)CC2 [Compound 724]	< 10 nM	10 to 100 nM
O=C(O)[C@H](Cc1cccc2c(-c3nccc4ccc(CCCN5CCCCC5)cc34)cccc12)NC(=O)C1(C(F)(F)F)CCN(CC(F)(F)F)CC1 [Compound 725]	< 10 nM	> 1000 nM
COc1cc2c(c(C(F)(F)F)c1-c1cccc3c(C[C@H](NC(=O)C4(C(F)(F)F)CCN(CC(F)(F)F)CC4)C(=O)O)cccc13)CCN(C)C2 [Compound 726]	< 10 nM	10 to 100 nM
COc1ccc(CCN2CCCCC2)c(C(F)(F)F)c1-c1cccc2c(C[C@H](NC(=O)C3(C(F)(F)F)CCN(CC(F)(F)F)CC3)C(=O)O)cccc12 [Compound 727]	< 10 nM	10 to 100 nM
COc1cc(CN2CCCCC2)c2cccnc2c1-c1cccc2c(C[C@H](NC(=O)C3(C(F)(F)F)CCN(CC(F)(F)F)CC3)C(=O)O)cccc12 [Compound 728]	< 10 nM	100 to 1000 nM
COc1cccc(OCCN2CCCCC2)c1-c1cccc2c(C[C@H](NC(=O)C3(C(F)(F)F)CCN(CC(F)(F)F)CC3)C(=O)O)cccc12 [Compound 729]	< 10 nM	100 to 1000 nM
O=C(O)[C@H](Cc1cccc2c(-c3ncc(CCCN4CCCCC4)c4ccccc34)cccc12)NC(=O)C1(C(F)(F)F)CCN(CC(F)(F)F)CC1 [Compound 730]	< 10 nM	> 1000 nM
COc1ccc(CCN2CCCCC2)cc1-c1cccc2c(C[C@H](NC(=O)C3(C(F)(F)F)CCN(CC(F)(F)F)CC3)C(=O)O)cccc12 [Compound 731]	< 10 nM	100 to 1000 nM
O=C(O)[C@H](Cc1cccc2c(-c3cc(CN4CCCCC4)cc4cccnc34)cccc12)NC(=O)C1(C(F)(F)F)CCN(CC(F)(F)F)CC1 [Compound 732]	10 to 100 nM	> 1000 nM
COc1ccc2cc(CN3CCCCC3)cnc2c1-c1cccc2c(C[C@H](NC(=O)C3(C(F)(F)F)CCN(CC(F)(F)F)CC3)C(=O)O)cccc12 [Compound 733]	10 to 100 nM	100 to 1000 nM
COc1cncc(OC)c1-c1cccc2c(C[C@H](NC(=O)C3(C(F)(F)F)CCN(CC(F)(F)F)CC3)C(=O)O)cccc12 [Compound 734]	< 10 nM	100 to 1000 nM
COc1c2c(cc(C)c1-c1cccc3c(C[C@H](NC(=O)C4(C(F)(F)F)CCN(CC(F)(F)F)CC4)C(=O)O)cccc13)CCN(C)C2 [Compound 735]	< 10 nM	> 1000 nM
COc1ccc2c(c1-c1cccc3c(C[C@H](NC(=O)C4(C(F)(F)F)CCN(CC(F)(F)F)CC4)C(=O)O)cccc13)CCN(C)C2 [Compound 737]	< 10 nM	100 to 1000 nM
COc1cc2ncccc2c(C)c1-c1cccc2c(C[C@H](NC(=O)C3(C(F)(F)F)CCN(CC(F)(F)F)CC3)C(=O)O)cccc12 [Compound 738]	10 to 100 nM	> 1000 nM
COc1c(-c2cccc3c(C[C@H](NC(=O)C4(C(F)(F)F)CCN(CC(F)(F)F)CC4)C(=O)O)cccc23)c(=O)n(C)c2ccccc12 [Compound 739]	10 to 100 nM	> 1000 nM

Second part, the molecule after the results:

IC50 (α4β7 integrin)	IC50 (α4β1 integrin)	SMILES
< 10 nM	10 to 100 nM	CN(C)Cc1ccc2c(c1)c(C(F)(F)F)c(-c1cccc3c(C[C@H](NC(=O)C4(C(F)(F)F)CCN(CC(F)(F)F)CC4)C(=O)O)cccc13)c(=O)n2C [Compound 696]
< 10 nM	> 1000 nM	O=C(O)[C@H](Cc1cccc2c(-c3ccc(CN4CCCCC4)c4ccncc34)cccc12)NC(=O)C1(C(F)(F)F)CCN(CC(F)(F)F)CC1 [Compound 702]
< 10 nM	100 to 1000 nM	COc1ccc(CN(C)C)c(OC(F)(F)F)c1-c1cccc2c(C[C@H](NC(=O)c3c(C)cccc3F)C(=O)O)cccc12 [Compound 703]
< 10 nM	100 to 1000 nM	Cc1cccc(F)c1C(=O)N[C@@H](Cc1cccc2c(-c3c(C(F)(F)F)c4cc(CCN(C)C)ccc4n(C)c3=O)cccc12)C(=O)O [Compound 706]
< 10 nM	10 to 100 nM	CN(C)CCc1ccc2c(c1)c(C(F)(F)F)c(-c1cccc3c(C[C@H](NC(=O)C4(C(F)(F)F)CCN(CC(F)(F)F)CC4)C(=O)O)cccc13)c(=O)n2C [Compound 707]
< 10 nM	> 1000 nM	Cn1c(=O)c(-c2cccc3c(C[C@H](NC(=O)c4c(F)cccc4F)C(=O)O)cccc23)c(C(F)(F)F)c2cc(CCN3CCC3)ccc21 [Compound 709]
< 10 nM	100 to 1000 nM	Cn1c(=O)c(-c2cccc3c(C[C@H](NC(=O)c4c(F)cccc4F)C(=O)O)cccc23)c(C(F)(F)F)c2cc(CCN3CCCC3)ccc21 [Compound 710]
< 10 nM	100 to 1000 nM	CN(C)CCc1ccc2c(c1)c(C(F)(F)F)c(-c1cccc3c(C[C@H](NC(=O)c4c(F)cccc4CN4CCC(F)(F)CC4)C(=O)O)cccc13)c(=O)n2C [Compound 711]
< 10 nM	100 to 1000 nM	Cc1cccc(F)c1C(=O)N[C@@H](Cc1cccc2c(-c3c(C(F)(F)F)c4cc(CCN5CCCC5)ccc4n(C)c3=O)cccc12)C(=O)O [Compound 713]
< 10 nM	> 1000 nM	Cc1c(CCN2CCC(F)(F)CC2)ccnc1-c1cccc2c(C[C@H](NC(=O)C3(C(F)(F)F)CCN(CC(F)(F)F)CC3)C(=O)O)cccc12 [Compound 716]
< 10 nM	100 to 1000 nM	Cc1c(CCN2CCCCC2)ccnc1-c1cccc2c(C[C@H](NC(=O)C3(C(F)(F)F)CCN(CC(F)(F)F)CC3)C(=O)O)cccc12 [Compound 717]
< 10 nM	> 1000 nM	O=C(O)[C@H](Cc1cccc2c(-c3nccc4ccc(CCN5CCCCC5)cc34)cccc12)NC(=O)C1(C(F)(F)F)CCN(CC(F)(F)F)CC1 [Compound 718]
< 10 nM	10 to 100 nM	COc1ccc2c(CN3CCCCC3)ccnc2c1-c1cccc2c(C[C@H](NC(=O)C3(C(F)(F)F)CCN(CC(F)(F)F)CC3)C(=O)O)cccc12 [Compound 722]
